Results as given in patent publication US20110039763A1, “TARGETED ANTIMICROBIAL MOIETIES” (C3 JIAN, INC., priority 2009, published 2011).

Legend:
[1] = system: microorganisms; assay: Peptide activities: targeting/binding, antimicrobial, growth or phenotype altering (Tables 7, 8); format: cell-based; settings: peptides having multiple activities
Description: In certain embodiments, peptides described herein can have multiple activities. Thus for example, a peptide can have both binding/targeting activity and antimicrobial activity. Such peptides can be used, e.g., in a chimeric construct, for any or all of these properties. Thus, for example, a peptide designated “B” in Table 8 can be used as a targeting peptide. If it is also designated G or M it can also be used for antimicrobial activity.
Table 8. Peptides Having Multiple Activities. B: Targeting/Binding Activity; M: Antimicrobial Activity; G: GROWTH or Phenotype Altering.

[2] = system: microorganisms; assay: Morphology, biofilm and growth disrupting peptides (Table 5); format: cell-based; set-up: key: A: Peptide aggregates; B: Less hyphal formation; Clumps; Diffuse clumps and small polyps; F: Diffuse growth; H: Thin; I: Growth inhibition; Microcolony formation; Rippled; Small polyps; Thick; W: Halo formation on top, microlonies on bottom
Description: In certain embodiments peptides that induce alterations in phenotype or other biological activities can also be used as antimicrobial effector moieties.

[3] = system: microorganisms; assay: Targeting peptide binding to target microorganisms (Tables 3, 10, 12); settings: microorganism(s) the targeting peptide binds; binding in aqueous buffers varied with peptide solubility, preferably 1x PBS

Substance: ALCSVIKAIELGIINVHLQ [PF-366]
- Activities [1]: G B
- Organism, effect: C. jejuni [2]: C. jejuni (D)
- Organism, effect: E. coli [2]: E. coli (C)
- Organism, effect: E. faecalis ([2]; E. faecalis): E. faecalis (C)
- Organism, effect: MRSA ([2]; MRSA): MRSA (D)
- Organism, effect: P. aeruginosa ([2]; P. aeruginosa): P. aeruginosa (A)
- Organism, effect: S. epidermidis ([2]; S. epidermidis): S. epidermidis (R)
- Organism, effect: S. pneumoniae ([2]; S. pneumoniae): S. pneumoniae (C)

Substance: EILNNNQVIKELTMKYKTQFESNLGGWTARARR [PF-580]
- Activities [1]: G B
- Organism, effect ([2]; M. luteus): M. luteus (C)
- Organism, effect ([2]; MRSA): MRSA (M)
- Organism, effect ([2]; S. epidermidis): S. epidermidis (M)
- Organism, effect ([2]; S. pneumoniae): S. pneumoniae (C)

Substance: MGIIAGIIKVIKSLIEQFTGK [PF-007]
- Activities [1]: G B
- Organism, effect: E. coli [2]: E. coli (A)
- Organism, effect: E. faecalis ([2]; E. faecalis): E. faecalis (A)
- Organism, effect: M. luteus ([2]; M. luteus): M. luteus (A)
- Organism, effect: MRSA ([2]; MRSA): MRSA (R)
- Organism, effect: S. epidermidis ([2]; S. epidermidis): S. epidermidis (A)

Substance: MIHLTKQNTMEALHFIKQFYDMFFILNFNV [PF-040]
- Activities [1]: G B
- Organism, effect: B. subtilis ([2]; B. subtilis): B. subtilis (D)
- Organism, effect: C. jeikeium ([2]; C. jeikeium): C. jeikeium (D)
- Organism, effect: C. jejuni [2]: C. jejuni (D)
- Organism, effect: E. coli [2]: E. coli (C)
- Organism, effect: M. luteus ([2]; M. luteus): M. luteus (D)
- Organism, effect: MRSA ([2]; MRSA): MRSA (D)
- Organism, effect: P. mirabilis ([2]; P. mirabilis): P. mirabilis (C)
- Organism, effect: S. epidermidis ([2]; S. epidermidis): S. epidermidis (D)
- Organism, effect: S. mutans ([2]; S. mutans, class symbol): S. mutans (F)
- Organism, effect: S. pneumoniae ([2]; S. pneumoniae): S. pneumoniae (D)

Substance: PF-001: peptide having multiple activities (MNNWIIVAQLSVTVINEIIDIMKEKQKGGK; Peptide with targeting and/or antimicrobial activity)
- Activities [1]: G B
- Organism, effect: C. jeikeium ([2]; C. jeikeium): C. jeikeium (D)
- Organism, effect: M. luteus ([2]; M. luteus): M. luteus (C)
- Organism, effect: MRSA ([2]; MRSA): MRSA (R)
- Organism, effect: S. epidermidis ([2]; S. epidermidis): S. epidermidis (C)

Substance: PF-004: peptide having multiple activities (ARLSKAIIIAVIVVYHLDVRGLF; Peptide with targeting and/or antimicrobial activity)
- Activities [1]: G B
- Organism, effect: C. jeikeium ([2]; C. jeikeium): C. jeikeium (A)
- Organism, effect: M. luteus ([2]; M. luteus): M. luteus (A)
- Organism, effect: MRSA ([2]; MRSA): MRSA (R)
- Organism, effect: S. epidermidis ([2]; S. epidermidis): S. epidermidis (A)

Substance: PF-012: peptide having multiple activities (WRGPNTEAGGKSANNIVQVGGAPT; Peptide with targeting and/or antimicrobial activity)
- Activities [1]: G B
- Organism, effect: C. jeikeium ([2]; C. jeikeium): C. jeikeium (A)
- Organism, effect: M. luteus ([2]; M. luteus): M. luteus (C)
- Organism, effect: MRSA ([2]; MRSA): MRSA (R)
- Organism, effect: S. epidermidis ([2]; S. epidermidis): S. epidermidis (S)

Substance: PF-022: peptide having multiple activities (MINELKNKNSGIMNNYVVTKESKL; Peptide with targeting and/or antimicrobial activity)
- Activities [1]: G B
- Organism, effect: C. jeikeium ([2]; C. jeikeium): C. jeikeium (A)
- Organism, effect: M. luteus ([2]; M. luteus): M. luteus (A)
- Organism, effect: MRSA ([2]; MRSA): MRSA (R)
- Organism, effect: S. epidermidis ([2]; S. epidermidis): S. epidermidis (D)

Substance: PF-667 (chain 1 PAHQRLRIDQRLVADRDMVQDYES; chain 2 PAHQRLRIDQRLVADRDMVQDYES; Peptide with targeting and/or antimicrobial activity)
- Target(s) [3]: Mycobacteria spp
- Organism, effect ([2]; E. faecalis): E. faecalis (R)
- Organism, effect ([2]; MRSA): MRSA (R)
- Organism, effect ([2]; S. epidermidis): S. epidermidis (R)
- Organism, effect ([2]; S. pneumoniae): S. pneumoniae (R)

Substance: PF-668 (chain 1 TNAESMALAFRGRVHMSVNIAGLT; chain 2 TNAESMALAFRGRVHMSVNIAGLT; Peptide with targeting and/or antimicrobial activity)
- Target(s) [3]: Mycobacteria spp
- Organism, effect ([2]; B. subtilis): B. subtilis (A)
- Organism, effect ([2]; C. albicans): C. albicans (A)
- Organism, effect ([2]; C. jeikeium): C. jeikeium (D)
- Organism, effect ([2]; E. faecalis): E. faecalis (D)
- Organism, effect ([2]; MRSA): MRSA (R)
- Organism, effect ([2]; S. epidermidis): S. epidermidis (M)
- Organism, effect ([2]; S. pneumoniae): S. pneumoniae (M)

Substance: PF-675 (EIIPISPTRRCEMHTMSSAEYRGL; Peptide with targeting and/or antimicrobial activity)
- Target(s) [3]: Mycobacteria spp
- Organism, effect ([2]; E. faecalis): E. faecalis (R)
- Organism, effect ([2]; S. pneumoniae): S. pneumoniae (C)

Substance: PF-677 (TCRGAGMH; Peptide with targeting and/or antimicrobial activity)
- Target(s) [3]: Mycobacteria spp
- Organism, effect ([2]; E. faecalis): E. faecalis (R)
- Organism, effect ([2]; MRSA): MRSA (D)
- Organism, effect ([2]; S. epidermidis): S. epidermidis (R)
- Organism, effect ([2]; S. pneumoniae): S. pneumoniae (D)

Substance: PF-680 (ADPHPTTGI; Peptide with targeting and/or antimicrobial activity)
- Target(s) [3]: Mycobacteria spp
- Organism, effect ([2]; MRSA): MRSA (R)

Substance: PF-682 (RRGKSEQGLSRR; Peptide with targeting and/or antimicrobial activity)
- Target(s) [3]: Mycobacteria spp
- Organism, effect ([2]; S. pneumoniae): S. pneumoniae (A)

Substance: PF-683 (LWPVA; Peptide with targeting and/or antimicrobial activity)
- Target(s) [3]: Mycobacteria spp
- Organism, effect ([2]; MRSA): MRSA (R)
- Organism, effect ([2]; S. epidermidis): S. epidermidis (R)
- Organism, effect ([2]; S. pneumoniae): S. pneumoniae (H)

Substance: PF-684 (RKLSLASGFALWRRSLV; Peptide with targeting and/or antimicrobial activity)
- Target(s) [3]: Mycobacteria spp
- Organism, effect ([2]; C. albicans): C. albicans (B)
- Organism, effect ([2]; E. faecalis): E. faecalis (A)
- Organism, effect ([2]; S. pneumoniae): S. pneumoniae (C)

Substance: PF-685 (PTLWLACL; Peptide with targeting and/or antimicrobial activity)
- Target(s) [3]: Mycobacteria spp
- Organism, effect ([2]; C. jeikeium): C. jeikeium (R)
- Organism, effect ([2]; E. faecalis): E. faecalis (R)
- Organism, effect ([2]; MRSA): MRSA (M)
- Organism, effect ([2]; S. epidermidis): S. epidermidis (M)
- Organism, effect ([2]; S. pneumoniae): S. pneumoniae (M)

Substance: PF-687 (AKRVLSLAVAPHRRQPVQGT; Peptide with targeting and/or antimicrobial activity)
- Target(s) [3]: Mycobacteria spp
- Organism, effect ([2]; S. pneumoniae): S. pneumoniae (A)

Substance: PF-688 (ARNHAVIPAG; Peptide with targeting and/or antimicrobial activity)
- Target(s) [3]: Mycobacteria spp
- Organism, effect ([2]; S. pneumoniae): S. pneumoniae (A)

Substance: PF-690 (MIPLAGDPVSSHRTVEFGVLGTYLVSGGSL; Peptide with targeting and/or antimicrobial activity)
- Target(s) [3]: Mycobacteria spp
- Organism, effect ([2]; E. faecalis): E. faecalis (R)
- Organism, effect ([2]; MRSA): MRSA (R)
- Organism, effect ([2]; S. epidermidis): S. epidermidis (R)
- Organism, effect ([2]; S. pneumoniae): S. pneumoniae (M)

Substance: PF-691 (HRTVEFGVLGTYLVSGGSL; Peptide with targeting and/or antimicrobial activity)
- Target(s) [3]: Mycobacteria spp
- Organism, effect ([2]; S. pneumoniae): S. pneumoniae (R)

Substance: PF-692 (GVAREDPLEPDPLAPIIDDSR; Peptide with targeting and/or antimicrobial activity)
- Target(s) [3]: Mycobacteria spp
- Organism, effect ([2]; MRSA): MRSA (R)

Substance: PF-693 (PDPAR; Peptide with targeting and/or antimicrobial activity)
- Target(s) [3]: Mycobacteria spp
- Organism, effect ([2]; S. pneumoniae): S. pneumoniae (A)

Substance: PF-694 (DLIRPLYSMSAPSVA; Peptide with targeting and/or antimicrobial activity)
- Target(s) [3]: Mycobacteria spp
- Organism, effect ([2]; MRSA): MRSA (R)
- Organism, effect ([2]; S. pneumoniae): S. pneumoniae (A)

Substance: PF-695 (ALSVMLGNIPLVVPNANQL; Peptide with targeting and/or antimicrobial activity)
- Target(s) [3]: Mycobacteria spp
- Organism, effect ([2]; E. faecalis): E. faecalis (R)
- Organism, effect ([2]; MRSA): MRSA (R)
- Organism, effect ([2]; S. pneumoniae): S. pneumoniae (C)

Substance: PF-696 (IRSGISAAYARPLR; Peptide with targeting and/or antimicrobial activity)
- Target(s) [3]: Mycobacteria spp
- Organism, effect ([2]; S. pneumoniae): S. pneumoniae (H)

Substance: PF-697 (RADARAK; Peptide with targeting and/or antimicrobial activity)
- Target(s) [3]: Mycobacteria spp
- Organism, effect ([2]; C. albicans): C. albicans (H)
- Organism, effect ([2]; S. pneumoniae): S. pneumoniae (H)

Substance: PF-698 (SSGRAGVKCRRPTGR; Peptide with targeting and/or antimicrobial activity)
- Target(s) [3]: Mycobacteria spp
- Organism, effect ([2]; C. albicans): C. albicans (H)
- Organism, effect ([2]; E. faecalis): E. faecalis (A)
- Organism, effect ([2]; S. pneumoniae): S. pneumoniae (A)

Substance: PF-699 (GRAGVKCRRPTGR; Peptide with targeting and/or antimicrobial activity)
- Target(s) [3]: Mycobacteria spp
- Organism, effect ([2]; S. pneumoniae): S. pneumoniae (A)

Substance: PF-700 (LNWPFTGR; Peptide with targeting and/or antimicrobial activity)
- Target(s) [3]: Mycobacteria spp
- Organism, effect ([2]; S. pneumoniae): S. pneumoniae (C)

Substance: PF-702 (LSGRLAGRR; Peptide with targeting and/or antimicrobial activity)
- Target(s) [3]: Mycobacteria spp
- Organism, effect ([2]; S. pneumoniae): S. pneumoniae (H)

Substance: PF-704 (APAARAAL; Peptide with targeting and/or antimicrobial activity)
- Target(s) [3]: Mycobacteria spp
- Organism, effect ([2]; S. pneumoniae): S. pneumoniae (C)
